Experimental data published in ChEMBL document CHEMBL1201862, “PubChem BioAssay data set” (2004).
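In this assay, cells in 96-well plates receive the compound at five concentrations for 48 hours. Endpoints are linearly interpolated between the surrounding concentrations. Here, GI50 denotes the concentration required for 50% inhibition of growth.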 Activity calls are given as the source filed them. No stated cut-off is given here; in the data, active = GI50 up to about 1.1 µM and inactive = higher.

Columns and labels:
Experiment in all cases: growth of human tumour cells (NCI), 48 h
786-0 = tested on: 786-0
A498 = tested on: A498
BT-549 = tested on: BT-549
COLO 205 = tested on: COLO 205
DU-145 = tested on: DU-145
HCT-116 = tested on: HCT-116
HCT-15 = tested on: HCT-15
HOP-62 = tested on: HOP-62
HT-29 = tested on: HT-29
Malme-3M = tested on: Malme-3M
NCI-H522 = tested on: NCI-H522
NCI/ADR-RES = tested on: NCI/ADR-RES
OVCAR-4 = tested on: OVCAR-4
OVCAR-5 = tested on: OVCAR-5
RXF 393 = tested on: RXF 393
SF-539 = tested on: SF-539
SK-MEL-2 = tested on: SK-MEL-2
SK-MEL-5 = tested on: SK-MEL-5
RPMI-8226 = tested on: RPMI-8226
SW-620 = tested on: SW-620

Structure (SMILES)	GI50 (786-0)	GI50 (A498)	GI50 (BT-549)	GI50 (COLO 205)	GI50 (DU-145)	GI50 (HCT-116)	GI50 (HCT-15) [µM]	GI50 (HOP-62)	GI50 (HT-29)	GI50 (Malme-3M)	GI50 (NCI-H522)	GI50 (NCI/ADR-RES)	GI50 (OVCAR-4)	GI50 (OVCAR-5)	GI50 (RXF 393)	GI50 (SF-539)	GI50 (SK-MEL-2)	GI50 (SK-MEL-5)	GI50 (RPMI-8226)	GI50 (SW-620)
Cc1ccc(-c2n[nH]c(=O)n2N2C(=O)C=CC2=O)cc1	> 100 µM (inactive)	> 100 µM (inactive)	> 100 µM (inactive)	> 100 µM (inactive)	> 100 µM (inactive)	> 100 µM (inactive)	> 100	> 100 µM (inactive)	> 100 µM (inactive)	> 100 µM (inactive)	> 100 µM (inactive)	> 100 µM (inactive)	> 100 µM (inactive)	> 100 µM (inactive)	> 100 µM (inactive)	> 100 µM (inactive)	> 100 µM (inactive)	> 100 µM (inactive)	–	–
O=C(c1ccc(Cl)cc1)N(C(=O)N1CCC(c2ccccc2)CC1)c1ccccc1	70.3 µM (inactive)	20.4 µM (inactive)	19.5 µM (inactive)	33 µM (inactive)	59 µM (inactive)	17.5 µM (inactive)	15	–	31.3 µM (inactive)	10.4 µM (inactive)	–	16.6 µM (inactive)	–	0.558 µM (active)	11.9 µM (inactive)	65 µM (inactive)	37.2 µM (inactive)	15.4 µM (inactive)	13.7 µM (inactive)	92 µM (inactive)
COc1ccc(/C=N/n2c(Cc3ccccc3)n[nH]c2=O)cc1	> 100 µM (inactive)	32.4 µM (inactive)	29.1 µM (inactive)	> 100 µM (inactive)	> 100 µM (inactive)	> 100 µM (inactive)	> 100	69.3 µM (inactive)	> 100 µM (inactive)	> 100 µM (inactive)	–	> 100 µM (inactive)	> 100 µM (inactive)	> 100 µM (inactive)	–	> 100 µM (inactive)	> 100 µM (inactive)	–	> 100 µM (inactive)	> 100 µM (inactive)
CCN(CC)N1C(=O)[N-][N+](CC)(CC)C1=O	> 100 µM (inactive)	> 100 µM (inactive)	> 100 µM (inactive)	71.1 µM (inactive)	> 100 µM (inactive)	> 100 µM (inactive)	> 100	> 100 µM (inactive)	> 100 µM (inactive)	> 100 µM (inactive)	> 100 µM (inactive)	> 100 µM (inactive)	> 100 µM (inactive)	> 100 µM (inactive)	–	> 100 µM (inactive)	> 100 µM (inactive)	> 100 µM (inactive)	> 100 µM (inactive)	> 100 µM (inactive)
c1ccc(-c2nc(-c3ccccc3SSc3ccccc3-c3nc(-c4ccccc4)nn3-c3ccccc3)n(-c3ccccc3)n2)cc1	> 100 µM (inactive)	> 100 µM (inactive)	> 100 µM (inactive)	> 100 µM (inactive)	> 100 µM (inactive)	> 100 µM (inactive)	> 100	> 10 µM (inactive)	–	> 100 µM (inactive)	–	> 100 µM (inactive)	–	> 100 µM (inactive)	> 100 µM (inactive)	> 100 µM (inactive)	–	–	> 100 µM (inactive)	> 100 µM (inactive)
O=C1Nc2nccnc2C(=O)N2CCC[C@@H]12	> 100 µM (inactive)	–	> 100 µM (inactive)	> 100 µM (inactive)	> 100 µM (inactive)	> 100 µM (inactive)	> 100	> 100 µM (inactive)	> 100 µM (inactive)	> 100 µM (inactive)	> 100 µM (inactive)	> 100 µM (inactive)	> 100 µM (inactive)	> 100 µM (inactive)	> 100 µM (inactive)	> 100 µM (inactive)	> 100 µM (inactive)	> 100 µM (inactive)	> 100 µM (inactive)	> 100 µM (inactive)
Nc1c(Cl)ncnc1NCC1(CO)CCC1	> 100 µM (inactive)	> 100 µM (inactive)	> 100 µM (inactive)	> 100 µM (inactive)	> 100 µM (inactive)	> 100 µM (inactive)	> 100	> 100 µM (inactive)	> 100 µM (inactive)	> 100 µM (inactive)	> 100 µM (inactive)	> 100 µM (inactive)	> 100 µM (inactive)	> 100 µM (inactive)	–	> 100 µM (inactive)	> 100 µM (inactive)	79.4 µM (inactive)	> 100 µM (inactive)	> 100 µM (inactive)
CC(C(=O)NCNC(=O)c1ccccc1)C(=O)NCc1ccccc1 (stereo unspecified)	> 100 µM (inactive)	–	> 100 µM (inactive)	> 100 µM (inactive)	> 100 µM (inactive)	> 100 µM (inactive)	> 100	–	> 100 µM (inactive)	> 100 µM (inactive)	99.3 µM (inactive)	> 100 µM (inactive)	–	> 100 µM (inactive)	> 100 µM (inactive)	> 100 µM (inactive)	> 100 µM (inactive)	> 100 µM (inactive)	> 100 µM (inactive)	> 100 µM (inactive)
